Laboratory results: US20230312524A1, “ALPHA1A-ADRENERGIC RECEPTOR AGONISTS AND METHODS OF USE” (CuraSen Therapeutics, Inc., priority 2020, published 2023)

Biological target: T1, α1A-ARS (Homo sapiens, UniProt P35348)
T1 sequence (P35348 1-466): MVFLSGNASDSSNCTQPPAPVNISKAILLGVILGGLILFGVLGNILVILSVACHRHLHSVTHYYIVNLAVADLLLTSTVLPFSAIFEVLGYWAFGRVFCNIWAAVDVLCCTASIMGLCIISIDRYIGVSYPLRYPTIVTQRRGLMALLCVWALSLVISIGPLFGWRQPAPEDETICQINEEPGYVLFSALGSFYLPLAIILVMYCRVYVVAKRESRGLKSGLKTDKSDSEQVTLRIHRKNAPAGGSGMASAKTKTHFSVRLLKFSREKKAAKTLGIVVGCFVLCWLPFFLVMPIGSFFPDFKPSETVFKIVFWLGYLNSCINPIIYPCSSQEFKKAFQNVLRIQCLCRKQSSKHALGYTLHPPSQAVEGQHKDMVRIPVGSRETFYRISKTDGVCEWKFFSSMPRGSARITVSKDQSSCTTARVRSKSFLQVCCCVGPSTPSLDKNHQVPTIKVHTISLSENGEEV
Assay: Calcium flux assay (Calcium 6 dye) in cells expressing an α1-AR
Assay type: cell-based
Details: calcium flux, α1A-AR; for Emax: maximum effect relative to full agonist epinephrine, read-out: Average Emax; for EC50: mean of at least three experiments, read-out: Average PEC50
Text: Calcium flux experimental design: alpha-1 adrenergic receptors (α1-ARs) couple to Gq proteins, which results in downstream activation of phospholipase C and release of calcium from intracellular stores. Intracellular calcium increase upon α1-AR activation can be detected by Calcium 6 dye.
Cell preparation: cells expressing an α1-AR were washed in warmed phosphate-buffered saline to remove medium and harvested using versene (Caisson Labs, catalog #EDL01).
Media was removed from cells by tapping plates upside-down on absorbent wipes, followed by 15 second upside-down 50×g centrifugation, again on absorbent wipes. 12 μL cell dye solution was added to cells using a reagent dispenser (Integra viaFILL) and cells were incubated for 90 minutes at 37° C., 5% CO2.
Compound preparation: candidate alpha-adrenergic compounds, dissolved to 10 mM in DMSO, were diluted in_assay buffer (HBSS/H-EPES containing 2 mM CaCl2 and 2 mM probenecid sodium salt). […] On all assay plates, vehicle (DMSO) and positive control (10 μM epinephrine) conditions were included on the plate, as well as a dose-response curve of epinephrine. […] 384 well compound plates were centrifuged briefly at 250×g, sealed (Axygen PCR-SP) and incubated at 37° C. until the 90 minute cell dye incubation was complete.
Calcium 6 stained cells and 384 well compound plates were loaded onto the Flexstation and incubated on the machine for 5 minutes before initiating the assay.
For each assay well, baseline Calcium 6 fluorescence was detected for 18 seconds prior to 12 μL compound addition at 12 μL per second. Changes in Calcium 6 fluorescence were detected for a further 22 seconds, for a total read time of 40 seconds. All detection was performed with medium gain sensitivity, bottom read, with 6 flashes per read.
Data analysis: for calcium flux, analysis of maximum change from baseline over the 40-second read time was determined using Softmax Pro and data was exported as raw text files. Potency estimates (EC50) were derived from dose response curves (maximum change from baseline versus the log concentration of test compound) fit by four-parameter nonlinear regression using Graphpad Prism. Efficacy was determined by comparing the magnitude of the test compound signal window (fitted curve max−min) with the signal window of the full agonist control, epinephrine. […] All experiments were repeated a minimum of three times, with the average (mean) potency and maximum effect relative to the within-plate full agonist dose-response comparator reported.

SMILES	Emax [%]	EC50 [nM]
Cn1nccc1-c1ccc(CC2=NCCN2)cc1Cl [Compound 1]	< 20	> 1000
Clc1cc(CC2=NCCN2)ccc1-c1ccn[nH]1 [Compound 2]	< 20	> 1000
Clc1cc(CC2=NCCN2)ccc1-c1ncco1 [Compound 3]	< 20	> 1000
Cc1csc(-c2ccc(CC3=NCCN3)cc2Cl)n1 [Compound 4]	< 20	> 1000
Cc1c(CC2=NCCN2)cccc1-c1ncco1 [Compound 5]	21 to 60	10 to 977
Cc1c(CC2=NCCN2)cccc1-c1cn[nH]c1 [Compound 6]	21 to 60	10 to 977
Cc1c(CC2=NCCN2)cccc1-c1ccnn1C [Compound 7]	21 to 60	10 to 977
Cc1csc(-c2cccc(CC3=NCCN3)c2C)n1 [Compound 8]	< 20	> 1000
Clc1ccc(CC2=NCCN2)cc1-c1ncco1 [Compound 10]	21 to 60	10 to 977
Cn1nccc1-c1cc(CC2=NCCN2)ccc1Cl [Compound 11]	< 20	> 1000
Cc1c(CC2=NCCN2)ccc(-c2ncco2)c1Cl [Compound 12]	< 20	10 to 977
Clc1ccc(CC2=NCCN2)c(-c2ncco2)c1 [Compound 13]	> 61	10 to 977
Cc1c(CC2=NCCN2)ccc(Cl)c1-c1ncco1 [Compound 14]	21 to 60	10 to 977
Cc1c(CC2=NCCN2)ccc(Cl)c1-c1ccnn1C [Compound 15]	< 20	> 1000
Cn1nccc1-c1cc(Cl)ccc1CC1=NCCN1 [Compound 16]	21 to 60	10 to 977
Cc1c(CC2=NCCN2)ccc(Cl)c1-c1cn[nH]c1 [Compound 17]	< 20	> 1000
Clc1ccc(CC2=NCCN2)c(-c2ccccn2)c1 [Compound 18]	> 61	10 to 977
Clc1ccc(CC2=NCCN2)c(-c2cccnc2)c1 [Compound 19]	> 61	> 1000

SMILES	Emax [%]	EC50 [nM]
Cc1c(CC2=NCCN2)cccc1-c1cc[nH]n1 [Compound 20]	21 to 60	10 to 977
Clc1ccc(CC2=NCCN2)c(-n2cccn2)c1 [Compound 21]	> 61	10 to 977
Cc1c(CC2=NCCN2)cccc1-n1cccn1 [Compound 22]	21 to 60	10 to 977
Clc1ccc(CC2=NCCN2)cc1-n1cccn1 [Compound 23]	21 to 60	10 to 977
Cc1csc(-c2cc(Cl)ccc2CC2=NCCN2)n1 [Compound 24]	21 to 60	10 to 977
Clc1ccc(CC2=NCCN2)c(-c2nccs2)c1 [Compound 25]	> 61	< 9.77
Cc1c(CC2=NCCN2)cccc1-c1cccs1 [Compound 26]	< 20	10 to 977
Clc1ccc(CC2=NCCN2)c(-c2cnccn2)c1 [Compound 27]	21 to 60	10 to 977
Clc1ccc(CC2=NCCN2)c(-c2cccs2)c1 [Compound 28]	> 61	< 9.77
Cc1c(CC2=NCCN2)cccc1-c1ccco1 [Compound 29]	21 to 60	10 to 977
Clc1ccc(CC2=NCCN2)c(-c2ccco2)c1 [Compound 30]	> 61	< 9.77
Clc1ccc(CC2=NCCN2)c(-c2ncccn2)c1 [Compound 32]	> 61	10 to 977
Clc1ccc(CC2=NCCN2)c(-c2cccnn2)c1 [Compound 33]	< 20	> 1000
Clc1ccc(CC2=NCCN2)c(-c2ccncn2)c1 [Compound 34]	21 to 60	> 1000
Cc1ccoc1-c1cc(Cl)ccc1CC1=NCCN1 [Compound 35]	> 61	< 9.77
Cc1c(CC2=NCCN2)ccc(Cl)c1-c1nccs1 [Compound 36]	< 20	> 1000
Cc1cc(-c2cc(Cl)ccc2CC2=NCCN2)sn1 [Compound 37]	21 to 60	10 to 977
